Source: patent publication US9783511B2, “Carbamate benzoxazine propionic acids and acid derivatives for modulation of RORgamma activity and the treatment of disease” (Merck Sharp & Dohme Corp., priority 2013, dated 2017)

target: human RORgammaT-Ligand Binding Domain (LBD) (Homo sapiens (Human), UniProt P51449); assay: RORγ-Ligand Binding Domain TR-FRET Assay (co-activator peptide SRC1_2 recruitment); assay type: biochemical; settings: HIS-tagged RORγ-LBD 3 nM, biotinylated SRC1 LXXLL peptide 100 nM, incubated overnight at 4° C., 665 nm/615 nm ratio
Procedure, shortened: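 E. coli-expressed, Ni2+-purified HIS-tagged human RORγ-LBD at 3 nM final in 50 mM Tris pH 7.0, 50 mM KCl, 1 mM EDTA, 0.1 mM DTT, 100 μg/mL delipidated BSA. TR-FRET read-out of SRC1_2 co-activator peptide recruitment; compounds dispensed acoustically.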

human RORgammaT-Ligand Binding Domain (LBD), sequence (P51449 269-508): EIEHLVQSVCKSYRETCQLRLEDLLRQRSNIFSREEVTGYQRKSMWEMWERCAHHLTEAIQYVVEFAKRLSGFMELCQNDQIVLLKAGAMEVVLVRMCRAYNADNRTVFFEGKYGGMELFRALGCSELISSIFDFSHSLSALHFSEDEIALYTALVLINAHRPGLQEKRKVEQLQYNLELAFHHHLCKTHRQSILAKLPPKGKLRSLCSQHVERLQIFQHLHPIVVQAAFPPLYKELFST

IC50 [µM]	Structure (SMILES)
0.0324	Cc1cncc(S(=O)(=O)N2C[C@H](CCC(=O)O)Oc3ccc(NC(=O)OC(C)(C)C(F)(F)F)cc32)c1 [Example 6BX, 3-[(2S)-4-[(5-methylpyridin-3-yl)sulfonyl]-6-{[(2,2,2-trifluoro-1,1-dimethylethoxy)carbonyl]amino}-3,4-dihydro-2H-1,4-benzoxazin-2-yl]propanoic acid]
0.0271	COc1cncc(S(=O)(=O)N2C[C@H](CCC(=O)O)Oc3ccc(NC(=O)OC(C)(C)C(F)(F)F)cc32)c1 [Example 6BY, 3-[(2S)-4-[(5-methoxypyridin-3-yl)sulfonyl]-6-{[(2,2,2-trifluoro-1,1-dimethylethoxy)carbonyl]amino}-3,4-dihydro-2H-1,4-benzoxazin-2-yl]propanoic acid]
0.0124	CCOc1sc(CC)nc1S(=O)(=O)N1C[C@H](CCC(=O)O)Oc2ccc(NC(=O)OC(C)(C)C(F)(F)F)cc21 [Example 6CC, 3-[(2S)-4-[(5-ethoxy-2-ethyl-1,3-thiazol-4-yl)sulfonyl]-6-{[(2,2,2-trifluoro-1,1-dimethylethoxy)carbonyl]amino}-3,4-dihydro-2H-1,4-benzoxazin-2-yl]propanoic acid]
0.0144	CCOc1sc(C2CC2)nc1S(=O)(=O)N1C[C@H](CCC(=O)O)Oc2ccc(NC(=O)OC(C)(C)C(F)(F)F)cc21 [Example 6CD, 3-[(2S)-4-[(2-cyclopropyl-5-ethoxy-1,3-thiazol-4-yl)sulfonyl]-6-{[(2,2,2-trifluoro-1,1-dimethylethoxy)carbonyl]amino}-3,4-dihydro-2H-1,4-benzoxazin-2-yl]propanoic acid]
0.0675	CCOc1sc(C(F)(F)F)nc1S(=O)(=O)N1C[C@H](CCC(=O)O)Oc2ccc(NC(=O)OC(C)(C)C(F)(F)F)cc21 [Example 6CE, 3-[(2S)-4-{[5-ethoxy-2-(trifluoromethyl)-1,3-thiazol-4-yl]sulfonyl}-6-{[(2,2,2-trifluoro-1,1-dimethylethoxy)carbonyl]amino}-3,4-dihydro-2H-1,4-benzoxazin-2-yl]propanoic acid]
0.02	CCc1nc(S(=O)(=O)N2C[C@H](CCC(=O)O)Oc3ccc(NC(=O)OC(C)(C)C(F)(F)F)cc32)c(OC(C)C)s1 [Example 6CF, 3-[(2S)-4-{[2-ethyl-5-(1-methylethoxy)-1,3-thiazol-4-yl]sulfonyl}-6-{[(2,2,2-trifluoro-1,1-dimethylethoxy)carbonyl]amino}-3,4-dihydro-2H-1,4-benzoxazin-2-yl]propanoic acid]
0.0229	CCc1nc(S(=O)(=O)N2C[C@H](CCC(=O)O)Oc3ccc(NC(=O)OC(C)(C)C(F)(F)F)cc32)c(OCC(F)(F)F)s1 [Example 6CG, 3-[(2S)-4-{[2-ethyl-5-(2,2,2-trifluoroethoxy)-1,3-thiazol-4-yl]sulfonyl}-6-{[(2,2,2-trifluoro-1,1-dimethylethoxy)carbonyl]amino}-3,4-dihydro-2H-1,4-benzoxazin-2-yl]propanoic acid]
0.0181	CC(C)(OC(=O)Nc1ccc2c(c1)N(S(=O)(=O)c1cc(C3CC3)ccc1F)C[C@H](CCC(=O)O)O2)C(F)(F)F [Example 6CH, 3-[(2S)-4-[(5-cyclopropyl-2-fluorophenyl)sulfonyl]-6-{[(2,2,2-trifluoro-1,1-dimethylethoxy)carbonyl]amino}-3,4-dihydro-2H-1,4-benzoxazin-2-yl]propanoic acid]
0.011	CC(C)(OC(=O)Nc1ccc2c(c1)N(S(=O)(=O)c1cccc(C#N)c1)C[C@H](CCC(=O)O)O2)C(F)(F)F [Example 6L, (S)-3-(4-((3-cyanophenyl)sulfonyl)-6-((((1,1,1-trifluoro-2-methylpropan-2-yl)oxy)carbonyl)amino)-3,4-dihydro-2H-benzo[b][1,4]oxazin-2-yl)propanoic acid]
0.014	CC(C)(OC(=O)Nc1ccc2c(c1)N(S(=O)(=O)c1ccc(F)c(F)c1)C[C@H](CCC(=O)O)O2)C(F)(F)F [Example 6N, (S)-3-(4-((3,4-difluorophenyl)sulfonyl)-6-((((1,1,1-trifluoro-2-methylpropan-2-yl)oxy)carbonyl)amino)-3,4-dihydro-2H-benzo[b][1,4]oxazin-2-yl)propanoic acid]
0.006	CC(C)(OC(=O)Nc1ccc2c(c1)N(S(=O)(=O)c1cccc(OC(F)(F)F)c1)C[C@H](CCC(=O)O)O2)C(F)(F)F [Example 6S, (S)-3-(6-((((1,1,1-trifluoro-2-methylpropan-2-yl)oxy)carbonyl)amino)-4-((3-(trifluoromethoxy)phenyl)sulfonyl)-3,4-dihydro-2H-benzo[b][1,4]oxazin-2-yl)propanoic acid]
0.004	CC(C)(OC(=O)Nc1ccc2c(c1)N(S(=O)(=O)c1cccc(OC(F)F)c1)C[C@H](CCC(=O)O)O2)C(F)(F)F [Example 6T, (S)-3-(4-((3-(difluoromethoxy)phenyl)sulfonyl)-6-((((1,1,1-trifluoro-2-methylpropan-2-yl)oxy)carbonyl)amino)-3,4-dihydro-2H-benzo[b][1,4]oxazin-2-yl)propanoic acid]
0.015	CC(C)(OC(=O)Nc1ccc2c(c1)N(S(=O)(=O)c1cccc(S(C)(=O)=O)c1)C[C@H](CCC(=O)O)O2)C(F)(F)F [Example 6X, (S)-3-(4-((3-(methylsulfonyl)phenyl)sulfonyl)-6-((((1,1,1-trifluoro-2-methylpropan-2-yl)oxy)carbonyl)amino)-3,4-dihydro-2H-benzo[b][1,4]oxazin-2-yl)propanoic acid]
0.0618	CC(C)(C[C@H]1CN(S(=O)(=O)c2cncc(C#N)c2)c2cc(NC(=O)OC(C)(C)C(F)(F)F)ccc2O1)C(=O)O [Example 12M, 3-[(2S)-4-[(5-cyanopyridin-3-yl)sulfonyl]-6-{[(2,2,2-trifluoro-1,1-dimethylethoxy)carbonyl]ami-no}-3,4-dihydro-2H-1,4-benzoxazin-2-yl]-2,2-dimethylpropanoic acid]
0.00922	CCOc1sc(CC)nc1S(=O)(=O)N1C[C@H](CC(C)(C)C(=O)O)Oc2ccc(NC(=O)OC(C)(C)C(F)(F)F)cc21 [Example 12P, 3-[(2S)-4-[(5-ethoxy-2-ethyl-1,3-thiazol-4-yl)sulfonyl]-6-{[(2,2,2-trifluoro-1,1-dimethylethoxy)carbonyl]ami-no}-3,4-dihydro-2H-1,4-benzoxazin-2-yl]-2,2-dimethylpropanoic acid]
0.0126	CCc1nc(S(=O)(=O)N2C[C@H](CC(C)(C)C(=O)O)Oc3ccc(NC(=O)OC(C)(C)C(F)(F)F)cc32)c(OCC(F)(F)F)s1 [Example 12R, 3-[(2S)-4-{[2-ethyl-5-(2,2,2-trifluoroethoxy)-1,3-thiazol-4-yl]sulfonyl}-6-{[(2,2,2-trifluoro-1,1-dimethylethoxy)carbonyl]ami-no}-3,4-dihydro-2H-1,4-benzoxazin-2-yl]-2,2-dimethylpropanoic acid]
0.0164	CCc1nc(S(=O)(=O)N2C[C@H](CC(C)(C)C(=O)O)Oc3ccc(NC(=O)OC(C)(C)C(F)(F)F)cc32)c(OC(C)C)s1 [Example 12S, 3-[(2S)-4-{[2-ethyl-5-(1-methylethoxy)-1,3-thiazol-4-yl]sulfonyl}-6-{[(2,2,2-trifluoro-1,1-dimethylethoxy)carbonyl]ami-no}-3,4-dihydro-2H-1,4-benzoxazin-2-yl]-2,2-dimethylpropanoic acid]
